Values joined by “and” are separate entries in the source; they are usually repeats but may differ in a detail not shown here. Identical values can stand only once.
Key:
L1210 cells [1] = experiment: cells; conditions: for IC50: read-out: IC50 (concentration inhibiting by 50% the viability of L1210 leukemic cells), day 4, Table 2 series; for inhibitory effect on L1210 cell viability: 256 nM, 4 days
Description: (§1) FIG. 1. […] For tumor cell growth and viability, L1210 cells were respectively seeded in triplicate at initial densities of 1×10^4 and 1.11×10^4 cells/0.5 ml/well in RPMI 1640 medium containing 7.5% FCS and penicillin (100 IU/ml)-streptomycin (100 μg/ml), and grown for 4 days in the presence or absence (control) of 256 nM concentrations of the indicated compounds in a humidified incubator at 37° C. with 5% CO2 in air. Cell density was monitored using a Coulter counter. […] The ability of viable cells/0.5 ml to bioreduce 0.1 ml of MTS:PMS (20:1) reagent over a 3-h incubation period at 37° C. was assessed by measuring the absorbamce of the water-soluble formazan products at A490 nm.
FIG. 4. […] Cells were seeded in triplicate at initial densities of 100,000 or 11,100 cells/0.5 ml/well and respectively incubated for 2 or 4 days in the presence or absence (control) of the indicated concentrations of drugs, which are plotted on a logarithmic scale. The ability of viable cells/0.5 ml to bioreduce 0.1 ml of MTS:PMS (20:1) reagent over a 3-h incubation period was assessed as described in FIG. 1.
(§2) TT0 was purchased from Aldrich (Milwaukee, Wis.). All solutions of synthetic TTs and tricyclic pyrone H10, vincristine (VCR; a gift from Lilly Researeh Laboratories, Indianapolis, Ind.) and camptothecin (CPT; from Sigma Chemical Co., St Louis, Mo.) were dissolved and diluted in dimethyl sulfoxide (DMSO), whereas daunomycin (DAU) (from Sigma) solutions were prepared in 0.1 M potassium phosphate buffer, pH 7.4, containing 0.9% NaCl. Suspension cultures of murine L1210 lymphocytic leukemia cells (American Type Culture Collection, Rockville, Md.) were maintained in continuous exponential growth by twice-a-week passage in RPMI 1640 medium supplemented with 7.5% fortified bovine calf serum (FCS; HyClone Laboratories, Logan, Utah) and penicillin (100 IU/ml)-streptomycin (100 μg/ml), and incubated in the presence or absence of drugs at 37° C. in a humidified atmosphere containing 5% CO2. […] Control cells incubated in the absence of drugs were similarly treated with vehicle only and, in every experiment, all incubates received the same volume of solvent. For drug removal, incubates were spun at 200×g for 10 min, drug-containing supernatants were discarded, and intact cells were washed thrice with 1 ml of the above RPMI 1640 culture medium and resuspended in 0.5 ml of fresh medium for further incubation.
L1210, HL-60-S, HL60-RV and HL-60-R8 cells suspended in FCS-containing RPMI 1640 medium were grown in 48-well Costar cell culture plates for up to 4 days in the presence or absence of drugs to evaluate drug cytotoxicity.

[2] = target: Malaria protease plasmepsin II (Plasmodium falciparum, UniProt P46925); experiment: Inhibition of malaria protease plasmepsin II; format: biochemical
Malaria protease plasmepsin II, sequence (P46925 125-453): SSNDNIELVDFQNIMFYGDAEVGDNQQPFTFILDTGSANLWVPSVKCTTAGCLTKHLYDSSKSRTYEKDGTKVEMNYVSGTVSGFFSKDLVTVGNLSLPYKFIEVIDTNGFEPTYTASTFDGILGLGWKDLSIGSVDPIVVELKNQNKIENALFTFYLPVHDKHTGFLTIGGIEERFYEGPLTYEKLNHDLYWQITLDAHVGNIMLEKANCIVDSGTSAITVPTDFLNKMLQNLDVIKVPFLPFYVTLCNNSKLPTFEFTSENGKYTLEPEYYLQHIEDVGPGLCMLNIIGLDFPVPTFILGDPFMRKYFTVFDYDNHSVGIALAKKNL

[3] = tested on: Plasmodium falciparum 3D7; experiment: Antimalarial activity, inhibition of Plasmodium falciparum 3D7; format: cell-based; conditions: malaria strain 3D7
L1210 cells [4] = experiment: DNA cleavage (intact chromatin precipitation) in L1210 cells; format: cell-based, murine
Description: FIG. 19. Comparison of the concentration-dependent effects of novel TT analogs and known DNA-damaging anticancer drugs on DNA cleavage in L1210 cells in vitro. […] After lysing the cells in HLB containing 0.2% Triton X-100, the detergent-soluble DNA fragments present in the supernatants and the intact chromatin DNA remaining in the pellets were separated by centrifugation and their radioactivity estimated by LSC. Results are expressed as [cpm in supernatant/cpm in supernatant+pellet]×100 at 24 h. For untreated controls (5.3±0.6% DNA fragmentation; striped area), the supernatant is 741±79 cpm and the pellet is 13,293±1,446 cpm.
FIG. 20. Comparison of the abilities of novel TT analogs to induce DNA cleavage in L1210 cells in vitro. Cells containing prelabeled DNA were incubated at 37° C. for 24 h in the presence or absence (control) of 7 μM concentrations of the indicated compounds. The protocol of the experiment and the determination of the results were identical to those of FIG. 12.
FIG. 22. Irreversibility of the effects of novel TT analogs and known DNA-damaging anticancer drugs on DNA cleavage in L1210 cells in vitro. Cells containing prelabeled DNA were incubated at 37° C. for various periods of time in the presence or absence (control) of 10 μM TT1 or TT2 and 1.6 μM DAU or CPT. The protocol of the experiment and the determination of the results at 24 h were identical to those of FIG. 19, except that the drugs were either maintained in the medium for the whole 24-h period of incubation (open) or removed after the first 3 (striped) and 8 h (closed). After spinning and washing the appropriate samples to remove the drugs, cells were resuspended in 0.5 ml of fresh medium to complete the 24-h period of incubation in the absence of drugs. Vehicle-treated controls were similarly spun and washed at 3 and 8 h. Bars: means±SD (n=3).
Drug-induced DNA cleavage was determined by intact chromatin precipitation, using L1210, HL-60-S, HL-60-RV and HL-60-R8 cells which were prelabeled with 1 μCi of ^3H-thymidine for 2 h at 37° C., washed with 3×1 ml of ice-cold PBS, collected by centrifugation, and resuspended in fresh FCS-containing RPMI 1640 medium at a density of about 1×10^6 cells/0.5 ml for L1210 and 0.5×10^6 cells/0.5 ml for HL cells. Except when otherwise specified, such cells containing prelabeled DNA were then exposed for 24 h to TTs and drugs known to induce DNA fragmentation. After centrifugation at 200×g for 10 min to discard the drugs and wash the cells, the intact cell pellets were lysed for 30 min in 0.5 ml of HLB, centrifuged at 12,000×g for 30 min to collect the supernatants, and resuspended in 0.5 ml of HLB. After another similar centrifugation, the radioactivities in the pooled supernatants (detergent-soluble low molecular weight DNA fragments) and the pellet (intact chromatin DNA) were determined by LSC: % DNA fragmentation=[cpm in supernatant/cpm in supernatant+pellet]×100. Before being counted in 6 ml of Bio-Safe NA, the intact pelleted chromatin was incubated for 2 h at 60° C. in the presence of 0.6 ml of NCS tissue solubilizer (Amersham).

L1210 cells [5] = experiment: L1210 tumor cell proliferation assay (Coulter counter); conditions: for inhibitory effect on L1210 cell growth: 256 nM, 4 days
Description: as §1
FIG. 3. […] The protocol of the experiment was identical to that of FIG. 1. […] Drug concentrations are plotted on a logarithmic scale.
as §2
For tumor cell growth, L1210 cells were resuspended in fresh FCS-containing RPMI 1640 medium, plated at an initial density of 1×10^4 cells/0.5 ml, and incubated in 48-well Costar cell culture plates (Costar, Cambridge, Mass.). Except when otherwise specified, cells were grown for 4 days in the presence or absence of drugs and their density was monitored every 24 h using a Coulter counter (Coulter Electronics, Luton Beds, UK).

[6] = Water solubility (stated in words); format: physicochemical
L1210 cells [7] = experiment: Mitotic index of L1210 cells; format: cell-based, murine; conditions: 24-h treatment; 0.2 μM VCR, 1 μM H10 (FIG. 18)
Description: FIG. 18. Effects of the novel TT analog TT2 and DAU on the mitotic index of L1210 cells in vitro. […] Cells (10^6/0.5 ml of RPMI 1640 medium) were incubated in triplicate for 24 h at 37° C. in the presence or absence (control) of 0.256, 0.64, 1.6 and 4 μM TT2, 0.256, 0.64 and 1.6 μM DAU, 0.2 μM VCR or 1 μM H10. After fixation with MeOH:acetic acid (3:1) and staining with 0.1% crystal violet, about 500 cells/slide were scored for mitotic figures and the mitotic index was expressed as the % of mitotic cells in drug-treated cultures divided by the % of mitotic cells in non-treated controls. The mean % of mitotic cells in control at 24 h was 1.86±0.43%.
L1210 cells (about 1×10^6/0.5 ml of FCS-containing RPMI 1640 medium) were incubated in triplicate for 24 h at 37° C. in the presence or absence of TTs or known antimitotic drugs, and collected by centrifugation at 200×g for 10 min to determine their mitotic index. For hypotonic treatment, cells were resuspended in 1 ml of 75 mM KCl for 20 min at 4° C. After fixation in 1 ml of MeOH:acetic acid (3:1), the final cell pellets were collected by centrifugation, resuspended in 75 μl of MeOH:acetic acid (3:1), dispensed onto glass slides, air dried, and stained by spreading 40 μl of 0.1% crystal violet under a coverslip. The % of cells in mitosis was determined microscopically by counting 500 cells/slides. The mitotic index was calculated as the % of mitotic cells in drug-treated cultures divided by the % of mitotic cells in non-treated controls.

## CCOC(=O)CCNC1=C(Br)C(=O)C2=C(C1=O)C1C3=C(C(=O)C=CC3=O)C2c2ccccc21 (stereo not drawn) [TT17, 2-Bromo-3-[2-(ethoxycarbonyl)ethylamino]-9,10-dihydro-9,10-[1′,2′]benzenoanthracene-1,4,5,8-tetraone]
L1210 cells [1]
  IC50: 240 nM

## CNC1=C(Br)C(=O)C2=C(C1=O)C1C3=C(C(=O)C=CC3=O)C2c2ccccc21 (stereo not drawn) [TT14, 2-Bromo-3-(methylamino)-9,10-dihydro-9,10-[1′,2′]benzenoanthracene-1,4,5,8-tetraone]
L1210 cells [1]
  IC50: 430 nM
[2]
  IC50: 9700 nM
[3]
  IC50: 4700 nM

## COC1=C(Br)C(=O)C2=C(C1=O)C1C3=C(C(=O)C=CC3=O)C2c2ccccc21 (stereo not drawn) [TT13, 2-Bromo-3-methoxy-9,10-dihydro-9,10-[1′,2′]benzenoanthracene-1,4,5,8-tetraone]
L1210 cells [1]
  IC50: 291 nM

## 9,10-Dihydro-9,10-[1′,2′]benzenoanthracene-1,4,5,8-tetraone [TT1]
L1210 cells [4]; 10 μM, drug removed after 3 and 8 h
  DNA fragmentation at 24 h after short exposure: 36-45%
L1210 cells [4]; 10 μM, whole 24 h
  DNA cleavage (% DNA fragmentation): 45% and 40%

## CC[C@@]1(O)C(=O)OCc2c1cc1n(c2=O)Cc2cc3ccccc3nc2-1 [CPT, camptothecin, reference compound]
L1210 cells [4]; 1.6 μM, 24 h
  DNA cleavage (% DNA fragmentation): 57%
L1210 cells [4]; 1.6 μM, maintained or removed after 3 or 8 h
  DNA fragmentation at 24 h, drug maintained or removed: 51-58%
L1210 cells [4]; Mus musculus, L1210, concentrations of CPT higher than 1.6 μM, 24 h, read-out: DNA cleavage, plateau of maximal stimulation
  Emax: 60 to 70%

## c1ccc2c(c1)C1c3ccccc3C2c2ccccc21 [TT0, triptycene]
L1210 cells [5]; in vitro
  activity against macromolecule synthesis and growth of L1210 cells: inactive

## CC(C)c1nc(CN(C)C(=O)N[C@H](C(=O)N[C@@H](Cc2ccccc2)C[C@H](O)[C@H](Cc2ccccc2)NC(=O)OCc2cncs2)C(C)C)cs1 [ritonavir, reference compound]
[3]; Plasmodium falciparum
  IC50: 9700 nM

## O=C(O)CCNC1=C(O)C(=O)C2=C(C1=O)C1C3=C(C(=O)C=CC3=O)C2c2ccccc21 (stereo not drawn) [TT21]
[6]
  water solubility: water soluble

## O=C(O)CCNC1=C(Br)C(=O)C2=C(C1=O)C1C3=C(C(=O)C=CC3=O)C2c2ccccc21 (stereo not drawn) [Compound 13, N-(2-Bromo-9,10-dihydro-1,4,5,8-tetraoxo-9,10-[1,2]benzenoanthracene-3-yl)-3-aminopropanoic acid]
L1210 cells [1]
  IC50: 1480 nM

## COC(=O)[C@@]12C(=O)C=CC(=O)[C@@H]1C1c3ccccc3C2c2c(OC)ccc(OC)c21 (relative stereo) [TT11, (4aR*,9aR*)-5,8-Dimethoxy-4a-methoxycarbonyl-9,9a,10-trihydro-9,10-[1′,2′]benzenoanthracene-1,4-dione]
L1210 cells [1]
  inhibitory effect on L1210 cell viability: marginal
L1210 cells [5]
  inhibitory effect on L1210 cell growth: marginal
L1210 cells [4]; 7 μM, 24 h, control 5%
  DNA cleavage (% DNA fragmentation): 7%

## CC[C@]1(O)C[C@H]2CN(CCc3c([nH]c4ccccc34)[C@@](C(=O)OC)(c3cc4c(cc3OC)N(C=O)[C@H]3[C@@](O)(C(=O)OC)[C@H](OC(C)=O)[C@]5(CC)C=CCN6CC[C@]43[C@@H]65)C2)C1 [VCR, vincristine, reference compound]
L1210 cells [7]
  increase in the mitotic index: 16 fold

## COC(=O)C1=CC(=O)[C@H]2C3c4ccccc4C(c4c(OC)ccc(OC)c43)[C@H]2C1=O (relative stereo) [TT10, (4aS*,9aR*)-5,8-Dimethoxy-2-methoxycarbonyl-4a,9,9a,10-tetrahydro-9,10-[1′,2′]benzenoanthracene-1,4-dione]
L1210 cells [1]
  inhibitory effect on L1210 cell viability: weak
L1210 cells [5]
  inhibitory effect on L1210 cell growth: weak

## CC(C)(C)OC(=O)CCNC1=C(Br)C(=O)C2=C(C1=O)C1C3=C(C(=O)C=CC3=O)C2c2ccccc21 (stereo not drawn) [Compound 12, 2-Bromo-3-[2-(t-butoxycarbonyl)ethylamino]-9,10-dihydro-9,10-[1,2]benzenoanthracene-1,4,5,8-tetraone]
L1210 cells [1]
  IC50: 310 nM

Reference: US6828450B2, “Triptycene analogs” (Kansas State University Research Foundation, priority 2000, dated 2004)
